Measurements taken from ChEMBL document CHEMBL5244221, “Synthesis and structure-activity relationship studies of cruzain and rhodesain inhibitors” (Eur J Med Chem, 2018).
pEC50, pIC50, pKi: −log10 of the molar value.

System: Trypanosoma brucei brucei
Experiment: Antitrypanosomal activity against Trypanosoma brucei brucei assessed as parasite growth inhibition
Type: functional, organism-based
Details: not given

In order of falling pEC50:
1. O=C(N[C@@H](Cc1ccccc1)C(=O)N[C@H](/C=C/S(=O)(=O)c1ccccc1)CCCCNS(=O)(=O)c1ccc2ccccc2c1)OCc1ccccc1  5.93
2. CCCCCCS(=O)(=O)NCCCC[C@@H](/C=C/S(=O)(=O)c1ccccc1)NC(=O)[C@H](Cc1ccccc1)NC(=O)OCc1ccccc1  5.91
3. O=C(N[C@@H](Cc1ccccc1)C(=O)N[C@H](/C=C/S(=O)(=O)c1ccccc1)CCCCn1nnc2ccccc21)OCc1ccccc1  5.73

System: Trypanosoma cruzi
Experiment: Antitrypanosomal activity against Trypanosoma cruzi assessed as reduction in parasite growth
Type: functional, organism-based
Details: not given

`Clc1ccc2c(NCCN3CCOCC3)ccnc2c1` and `O=C(CNc1ccnc2cc(Cl)ccc12)N1CCOCC1` cannot be ordered by pIC50: less than 3.60 for the first, less than 3.60 for the second.

`OCCN1CCN(c2ccnc3cc(Cl)ccc23)CC1` and `OCCNc1ccnc2cc(Cl)ccc12` cannot be ordered by pIC50: less than 3.60 for the first, less than 3.60 for the second.

Compared with `NCCCNc1ccnc2cc(Cl)ccc12`, `OCCCNc1ccnc2cc(Cl)ccc12` is higher in pIC50: less than 3.60 for the first, 5.19 for the second.

For `O=C(COCc1ccccc1Br)NCCc1nc2ccccc2[nH]1`, the pIC50 was 4.46.

System: Trypanosoma brucei
Experiment: Antitrypanosomal activity against Trypanosoma brucei assessed as parasite growth inhibition
Type: functional, organism-based
Details: not given

In order of falling pEC50:
1. N#Cc1nc(Cc2ccc(Cl)c(Cl)c2)c2ncn(CCCCCO)c2n1  7.22
2. N#Cc1nc(Cc2ccc(Cl)c(Cl)c2)c2ncn(CCCO)c2n1  6.96
3. COCCCn1cnc2c(Cc3ccc(Cl)c(Cl)c3)nc(C#N)nc21  6.82
4. CCCCn1cnc2c(Cc3ccc(Cl)c(Cl)c3)nc(C#N)nc21  6.74
5. COC(CCn1cnc2c(Cc3ccc(Cl)c(Cl)c3)nc(C#N)nc21)OC  6.66
6. N#Cc1nc(Cc2ccccc2)c2ncn(CC3CCCCO3)c2n1 (stereo not given)  6.62
7. N#Cc1nc(Cc2ccccc2)c2ncn(Cc3cccc(C(F)(F)F)c3)c2n1  6.59
8. N#Cc1nc(Cc2ccc(Cl)c(Cl)c2)c2ncn(Cc3ccccc3)c2n1  6.59
9. CCCCn1cnc2c(Cc3cccc(C)c3)nc(C#N)nc21  6.57
10. COc1ccc(Cn2cnc3c(Cc4ccc(Cl)cc4)nc(C#N)nc32)cc1  6.57
11. N#Cc1nc(Cc2ccc(Cl)cc2)c2ncn(CCCO)c2n1  6.51
12. N#Cc1nc(C2CCCCC2)c2ncn(Cc3ccccc3)c2n1  6.48
13. N#Cc1nc(Cc2ccc(Cl)cc2)c2ncn(Cc3cccc(C(F)(F)F)c3)c2n1  6.47
14. CCCCn1cnc2c(Cc3ccc(OC)cc3)nc(C#N)nc21  6.41

Target: T1, Rhodesain (Trypanosoma brucei rhodesiense, UniProt Q95PM0)
T1 sequence (Q95PM0 whole entry): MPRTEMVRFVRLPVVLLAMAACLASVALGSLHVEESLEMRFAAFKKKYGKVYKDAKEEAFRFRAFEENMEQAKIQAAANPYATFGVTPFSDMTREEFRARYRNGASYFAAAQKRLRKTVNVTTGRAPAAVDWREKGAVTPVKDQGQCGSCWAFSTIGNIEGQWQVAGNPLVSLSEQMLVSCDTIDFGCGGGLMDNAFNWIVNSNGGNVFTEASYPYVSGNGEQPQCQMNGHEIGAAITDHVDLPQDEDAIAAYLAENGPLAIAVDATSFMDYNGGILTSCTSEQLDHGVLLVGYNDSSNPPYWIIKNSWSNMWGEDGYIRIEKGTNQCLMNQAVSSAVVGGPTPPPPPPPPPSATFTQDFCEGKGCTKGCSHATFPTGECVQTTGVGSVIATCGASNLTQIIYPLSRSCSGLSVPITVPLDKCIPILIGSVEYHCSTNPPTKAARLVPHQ
Experiment: Inhibition of Trypanosoma brucei rhodesiense rhodesain
Details: not given

In order of falling pIC50:
1. CCOC(=O)/C=C\C(=O)[C@H](CC(C)C)NC(=O)[C@H](Cc1ccccc1)NC(=O)OCc1ccccc1  7.79
2. CCOC(=O)/C=C/[C@@H](O)[C@H](CCc1ccccc1)NC(=O)[C@H](Cc1ccccc1)NC(=O)OCc1ccccc1  4.70
3. CCCNc1ccnc2cc(Cl)ccc12  4.47
4. Clc1ccc2c(NCc3ccccc3)ccnc2c1  4.47
5. O=C(CNc1ccnc2cc(Cl)ccc12)N1CCOCC1  4.32
6. OCCNc1ccnc2cc(Cl)ccc12  4.24
7. Clc1ccc2c(NCCN3CCOCC3)ccnc2c1  4.21
8. OCCCNc1ccnc2cc(Cl)ccc12  4.14
9. NCCNc1ccnc2cc(Cl)ccc12  3.90

System: not listed separately
Experiment: Lipophilicity, logP of compound
Type: physicochemical
Details: octanol/water

In the case of `CCCCC(C(=O)COc1c(F)c(F)cc(F)c1F)n1cc([C@@](C)(NCc2ccc3ncccc3c2)C(C)C)nn1` (stereo not given in full), the logP was 5.8.

Target: T2, Cruzipain (Trypanosoma cruzi, UniProt P25779)
T2 sequence (P25779 whole entry): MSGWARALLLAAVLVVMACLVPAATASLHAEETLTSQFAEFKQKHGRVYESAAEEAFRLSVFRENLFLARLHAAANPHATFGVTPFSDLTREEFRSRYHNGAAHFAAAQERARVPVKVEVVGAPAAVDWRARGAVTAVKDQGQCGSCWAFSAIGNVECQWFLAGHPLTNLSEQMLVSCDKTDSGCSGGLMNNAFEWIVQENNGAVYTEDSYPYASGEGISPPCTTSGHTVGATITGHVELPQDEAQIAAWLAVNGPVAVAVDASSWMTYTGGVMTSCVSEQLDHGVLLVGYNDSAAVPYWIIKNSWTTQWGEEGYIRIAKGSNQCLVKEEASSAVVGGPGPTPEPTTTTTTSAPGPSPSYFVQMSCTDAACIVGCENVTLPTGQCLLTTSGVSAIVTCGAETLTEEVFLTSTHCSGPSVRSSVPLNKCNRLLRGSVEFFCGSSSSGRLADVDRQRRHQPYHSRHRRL
Experiment: Binding affinity to Trypanosoma cruzi Cruzain assessed as inhibition constant
Details: not given

In order of falling pKi:
1. O=C(COc1ccc2ccccc2c1Br)NCCc1nc2ccccc2[nH]1  7.10
2. N#CCNC(=O)[C@H](Cc1ccccc1)NC(=O)c1cc(Br)ccn1  6.60

Target: T1, Rhodesain
Experiment: Inhibition of Trypanosoma brucei rhodesiense rhodesain expressed in Pichia pastoris measured for 30 mins using Cbz-Phe-Arg-AMC as substrate
Details: not given

For `Cc1nc(-c2ccccc2)sc1C(=O)N[C@H](/C=C/S(=O)(=O)c1ccccc1)CCc1ccccc1`, the pKi was 8.22.

Target: T2, Cruzipain
Experiment: Inhibition of Trypanosoma cruzi Cruzain
Details: not given

In order of rising pIC50:
1. O=C(COCc1ccccc1Br)NCCc1nc2ccccc2[nH]1  4.11
2. Clc1ccc2[nH]c3c(NCCCN4CCOCC4)ncnc3c2c1  5.60

System: Trypanosoma cruzi
Experiment: Antitrypanosomal activity against Trypanosoma cruzi assessed as inhibition of growth incubated for 4 days by resazurin dye based assay
Type: functional, organism-based
Details: 96 h

`CC(C)(F)C[C@H](N[C@@H](c1ccc(-c2ccc(S(C)(=O)=O)cc2)cc1)C(F)(F)F)C(=O)NC1(C#N)CC1` [ODANACATIB] showed a pEC50 of 5.60.

Target: Cathepsin S (Homo sapiens, UniProt P25774)
Sequence (P25774 whole entry): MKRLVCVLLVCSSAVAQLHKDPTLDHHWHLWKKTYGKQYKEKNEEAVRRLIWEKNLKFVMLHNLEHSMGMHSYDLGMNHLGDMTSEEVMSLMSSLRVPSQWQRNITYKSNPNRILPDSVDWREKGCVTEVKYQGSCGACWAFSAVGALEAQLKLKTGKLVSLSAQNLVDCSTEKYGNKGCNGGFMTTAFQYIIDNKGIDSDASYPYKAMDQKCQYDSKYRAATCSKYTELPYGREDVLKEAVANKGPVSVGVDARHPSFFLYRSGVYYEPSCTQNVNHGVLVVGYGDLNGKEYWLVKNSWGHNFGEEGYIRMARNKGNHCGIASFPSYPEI
Experiment: Binding affinity to Cathepsin S (unknown origin) assessed as inhibition constant measured after 22 hrs
Details: not given

In order of rising pKi:
1. O=C(COc1ccccc1F)NCCc1nc2ccccc2[nH]1  6.44
2. N#Cc1ccccc1OCC(=O)NCCc1nc2ccccc2[nH]1  6.66
3. O=C(COc1ccccc1I)NCCc1nc2ccccc2[nH]1  7.32

System: Trypanosoma cruzi
Experiment: Antitrypanosomal activity against Trypanosoma cruzi
Type: functional, organism-based
Details: not given

In order of rising pEC50:
1. Cc1nn(C)c2cc(N3CCN(C(=O)[C@@H]4CCCC[C@H]4C(=O)NC4(C#N)CC4)[C@H](C)C3)ccc12  5.89
2. N#CC1(NC(=O)[C@H](Cc2ccccc2)N[C@H](c2ccccc2)C(F)(F)F)CC1  6.92
